Laboratory results: US20250333424A1, “ANTIVIRAL COMPOUNDS” (Gilead Sciences, Inc., priority 2024, published 2025)

Experiments:
[1] = test system: monocytic THP1 cells infected with HIV VSV-G pseudotyped GFP-NEF reporter virus; test: cells; assay type: cell-based; details: Human immunodeficiency virus 1, THP-1, 24 h
[2] = test system: CD4 cells, isolated from healthy donor PMBCs, infected with HIV VSV-G pseudotyped GFP-GAG reporter virus; test: tissue or blood; assay type: cell-based; details: Homo sapiens, 72 h

Row | SMILES | EC50 [1] | EC50 [2]
1 | Cc1cc(/C=C/C#N)cc(C)c1Oc1nc(NC23CC(C#N)(C2)C3)nc2c1CCN2 [Compound 130, 3-[[4-[4-[(E)-2-cyanovinyl]-2,6-dimethyl-phenoxy]-6,7-dihydro-5H-pyrrolo[2,3-d]pyrimidin-2-yl]amino]bicyclo[11.1.1]pentane-1-carbonitrile] | 0.221 µM | 0.056 µM
2 | Cc1cc(/C=C/C#N)cc(C)c1Oc1nc(NC23CC(C#N)(C2)C3)nc2onc(C)c12 [Compound 142, (E)-3-((4-(4-(2-cyanovinyl)-2,6-dimethylphenoxy)-3-methylisoxazolo[5,4-d]pyrimidin-6-yl)amino)bicyclo[1.1.1]pentane-1-carbonitrile] | 0.024 µM | 0.0176 µM
3 | Cc1cc(/C=C/C#N)cc(C)c1Oc1nc(NC23CC(C#N)(C2)C3)nc2c1c(C)nn2C [Compound 148, (E)-3-((4-(4-(2-cyanovinyl)-2,6-dimethylphenoxy)-1,3-dimethyl-1H-pyrazolo[3,4-d]pyrimidin-6-yl)amino)bicyclo[1.1.1]pentane-1-carbonitrile] | 0.0481 µM | 0.041 µM
4 | Cc1cc(/C=C/C#N)cc(C)c1Oc1nc(NC23CC(C#N)(C2)C3)nc2c1CN(C)C2 [Compound 150, (E)-3-((4-(4-(2-cyanovinyl)-2,6-dimethylphenoxy)-6-methyl-6,7-dihydro-5H-pyrrolo[3,4-d]pyrimidin-2-yl)amino)bicyclo[1.1.1]pentane-1-carbonitrile] | 0.0992 µM | 0.11 µM
5 | Cc1cc(/C=C/C#N)cc(C)c1Oc1nc(NC23CC(C4COC4)(C2)C3)nc2[nH]nc(C)c12 [Compound 154, (E)-3-(3,5-dimethyl-4-((3-methyl-6-((3-(oxetan-3-yl)bicyclo[1.1.1]pentan-1-yl)amino)-1H-pyrazolo[3,4-d]pyrimidin-4-yl)oxy)phenyl)acrylonitrile] | 0.235 µM | 0.324 µM
